Measured values as given in PubChem BioAssay AID256 (DTP/NCI, 2004).
“And” between values parts separate entries of the source, which are not always exact repeats. Equal entries are not always repeated. Toxic doses and inconclusive results are not listed.

Test system: CD2F1 mice, L1210 leukemia ip, survival T/C
Assay: NCI In Vivo Anticancer Drug Screen. Data for tumor model L1210 Leukemia (intraperitoneal) in CD2F1 (CDF1) mice
Conditions: higher = longer survival
Outline: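 Compound-dosed mice with transplantable tumor versus matched vehicle controls; endpoint ratio T/C reported.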

O=P1(N(CCCl)CCCl)NCCCO1 (stereo unspecified)
T/C (endpoint: mean survival time, dose: 10.0 mg/kg/injection, schedule: Q01DX009 (ip), vehicle: saline): 124 % of control
T/C (endpoint: mean survival time, dose: 12.5 mg/kg/injection, schedule: Q01DX005 (ip), vehicle: water): 120 % of control and 122 % of control
T/C (endpoint: mean survival time, dose: 12.5 mg/kg/injection, schedule: Q01DX009 (ip), vehicle: saline): 114 % of control and 123 % of control
T/C (endpoint: mean survival time, dose: 20.0 mg/kg/injection, schedule: Q01DX009 (ip), vehicle: saline): 122 % of control
T/C (endpoint: mean survival time, dose: 20.0 mg/kg/injection, schedule: Q03DX003 (ip), vehicle: saline): 124 % of control
T/C (endpoint: mean survival time, dose: 20.0 mg/kg/injection, schedule: Q04DX003 (ip), vehicle: saline): 114 % of control and 115 % of control
T/C (endpoint: mean survival time, dose: 25.0 mg/kg/injection, schedule: Q01DX001 (ip), vehicle: DMSO): 115 % of control
T/C (endpoint: mean survival time, dose: 30.0 mg/kg/injection, schedule: Q04DX003 (ip), vehicle: water): 113 % of control
T/C (endpoint: mean survival time, dose: 31.3 mg/kg/injection, schedule: Q01DX001 (ip), vehicle: DMSO): 114 % of control
T/C (endpoint: mean survival time, dose: 31.3 mg/kg/injection, schedule: Q01DX001 (ip), vehicle: saline): 113 % of control
T/C (endpoint: mean survival time, dose: 38.9 mg/kg/injection, schedule: Q01DX001 (ip), vehicle: water): 119 % of control
T/C (endpoint: mean survival time, dose: 40.0 mg/kg/injection, schedule: Q01DX007 (ip), vehicle: saline): 163 % of control
T/C (endpoint: mean survival time, dose: 40.0 mg/kg/injection, schedule: Q01DX009 (ip), vehicle: saline): 170 % of control
T/C (endpoint: mean survival time, dose: 40.0 mg/kg/injection, schedule: Q03DX003 (ip), vehicle: saline): 151 % of control
T/C (endpoint: mean survival time, dose: 40.0 mg/kg/injection, schedule: Q04DX003 (ip), vehicle: saline): 155 % of control
T/C (endpoint: mean survival time, dose: 50.0 mg/kg/injection, schedule: Q01DX001 (ip), vehicle: DMSO): 117 % of control
T/C (endpoint: mean survival time, dose: 50.0 mg/kg/injection, schedule: Q01DX001 (ip), vehicle: Klucel (hydroxypropylcellulose) (HPC)): 113 % of control
T/C (endpoint: mean survival time, dose: 50.0 mg/kg/injection, schedule: Q01DX001 (ip), vehicle: other): 115 % of control
T/C (endpoint: mean survival time, dose: 50.0 mg/kg/injection, schedule: Q01DX009 (ip), vehicle: saline): 165 % of control and 173 % of control
T/C (endpoint: mean survival time, dose: 62.5 mg/kg/injection, schedule: Q01DX001 (ip), vehicle: Klucel (hydroxypropylcellulose) (HPC)): 122 % of control
T/C (endpoint: mean survival time, dose: 62.5 mg/kg/injection, schedule: Q01DX001 (ip), vehicle: saline with Tween-80): 124 % of control
T/C (endpoint: mean survival time, dose: 62.5 mg/kg/injection, schedule: Q01DX001 (ip), vehicle: water): 121 % of control and 122 % of control
T/C (endpoint: mean survival time, dose: 80.0 mg/kg/injection, schedule: Q03DX003 (ip), vehicle: saline): 192 % of control
T/C (endpoint: mean survival time, dose: 80.0 mg/kg/injection, schedule: Q04DX003 (ip), vehicle: saline): 187 % of control
T/C (endpoint: mean survival time, dose: 100.0 mg/kg/injection, schedule: Q01DX001 (ip), vehicle: DMSO): 158 % of control
T/C (endpoint: mean survival time, dose: 108.0 mg/kg/injection, schedule: Q01DX001 (ip), vehicle: saline): 164 % of control
T/C (endpoint: mean survival time, dose: 108.0 mg/kg/injection, schedule: Q01DX001 (ip), vehicle: water): 169 % of control
T/C (endpoint: mean survival time, dose: 125.0 mg/kg/injection, schedule: Q01DX001 (ip), vehicle: Klucel (hydroxypropylcellulose) (HPC)): 170 % of control
T/C (endpoint: mean survival time, dose: 125.0 mg/kg/injection, schedule: Q01DX001 (ip), vehicle: saline with Tween-80): 150 % of control and 159 % of control
T/C (endpoint: mean survival time, dose: 125.0 mg/kg/injection, schedule: Q01DX001 (ip), vehicle: water): 156 % of control and 173 % of control
T/C (endpoint: mean survival time, dose: 133.0 mg/kg/injection, schedule: Q01DX001 (ip), vehicle: saline): 167 % of control
T/C (endpoint: mean survival time, dose: 135.0 mg/kg/injection, schedule: Q01DX001 (ip), vehicle: saline): 158 % of control and 171 % of control
T/C (endpoint: mean survival time, dose: 150.0 mg/kg/injection, schedule: Q01DX001 (ip), vehicle: water): 172 % of control
T/C (endpoint: mean survival time, dose: 160.0 mg/kg/injection, schedule: Q01DX009 (ip), vehicle: saline): 124 % of control
T/C (endpoint: mean survival time, dose: 180.0 mg/kg/injection, schedule: Q01DX001 (ip), vehicle: water): 176 % of control
T/C (endpoint: mean survival time, dose: 196.0 mg/kg/injection, schedule: Q01DX001 (ip), vehicle: saline): 201 % of control
T/C (endpoint: mean survival time, dose: 200.0 mg/kg/injection, schedule: Q01DX001 (ip), vehicle: Klucel (hydroxypropylcellulose) (HPC)): 164 % of control and 198 % of control
T/C (endpoint: mean survival time, dose: 200.0 mg/kg/injection, schedule: Q01DX001 (ip), vehicle: other): 189 % of control
T/C (endpoint: mean survival time, dose: 200.0 mg/kg/injection, schedule: Q01DX005 (ip), vehicle: water): 191 % of control
T/C (endpoint: mean survival time, dose: 200.0 mg/kg/injection, schedule: Q04DX003 (ip), vehicle: saline): 205 % of control
T/C (endpoint: mean survival time, dose: 250.0 mg/kg/injection, schedule: Q01DX001 (ip), vehicle: saline with Tween-80): 190 % of control
T/C (endpoint: mean survival time, dose: 250.0 mg/kg/injection, schedule: Q01DX001 (ip), vehicle: water): 188 % of control and 261 % of control and 280 % of control
T/C (endpoint: mean survival time, dose: 320.0 mg/kg/injection, schedule: Q04DX003 (ip), vehicle: saline): 117 % of control
T/C (endpoint: mean survival time, dose: 400.0 mg/kg/injection, schedule: Q01DX001 (ip), vehicle: Klucel (hydroxypropylcellulose) (HPC)): 187 % of control
T/C (endpoint: mean survival time, dose: 400.0 mg/kg/injection, schedule: Q01DX001 (ip), vehicle: other): 183 % of control
T/C (endpoint: mean survival time, dose: 450.0 mg/kg/injection, schedule: Q01DX001 (ip), vehicle: saline): 209 % of control
T/C (endpoint: mean survival time, dose: 500.0 mg/kg/injection, schedule: Q01DX001 (ip), vehicle: Klucel (hydroxypropylcellulose) (HPC)): 173 % of control
T/C (endpoint: mean survival time, dose: 500.0 mg/kg/injection, schedule: Q01DX001 (ip), vehicle: saline with Tween-80): 197 % of control
T/C (endpoint: mean survival time, dose: 500.0 mg/kg/injection, schedule: Q01DX001 (ip), vehicle: water): 253 % of control and 223 % of control and 271 % of control
T/C (endpoint: median survival time, dose: 12.5 mg/kg/injection, schedule: Q01DX009 (ip), vehicle: saline): 120 % of control and 122 % of control
T/C (endpoint: median survival time, dose: 20.0 mg/kg/injection, schedule: Q01DX009 (ip), vehicle: water): 121 % of control
T/C (endpoint: median survival time, dose: 25.0 mg/kg/injection, schedule: Q01DX001 (ip), vehicle: saline): 117 % of control and 118 % of control
T/C (endpoint: median survival time, dose: 25.0 mg/kg/injection, schedule: Q01DX001 (ip), vehicle: water): 113 % of control
T/C (endpoint: median survival time, dose: 31.25 mg/kg/injection, schedule: Q01DX001 (ip), vehicle: water): 116 % of control and 119 % of control (2×)
T/C (endpoint: median survival time, dose: 40.0 mg/kg/injection, schedule: Q01DX009 (ip), vehicle: water): 153 % of control
T/C (endpoint: median survival time, dose: 50.0 mg/kg/injection, schedule: Q01DX005 (ip), vehicle: saline): 169 % of control
T/C (endpoint: median survival time, dose: 50.0 mg/kg/injection, schedule: Q01DX009 (ip), vehicle: saline): 178 % of control and 182 % of control
T/C (endpoint: median survival time, dose: 50.0 mg/kg/injection, schedule: Q03DX003 (ip), vehicle: saline): 162 % of control
T/C (endpoint: median survival time, dose: 62.5 mg/kg/injection, schedule: Q01DX001 (ip), vehicle: water): 151 % of control
T/C (endpoint: median survival time, dose: 66.0 mg/kg/injection, schedule: Q07DX003 (sc), vehicle: saline): 155 % of control and 162 % of control
T/C (endpoint: median survival time, dose: 100.0 mg/kg/injection, schedule: Q01DX001 (ip), vehicle: water): 155 % of control and 160 % of control
T/C (endpoint: median survival time, dose: 100.0 mg/kg/injection, schedule: Q01DX009 (ip), vehicle: saline): 114 % of control
T/C (endpoint: median survival time, dose: 100.0 mg/kg/injection, schedule: Q03DX003 (ip), vehicle: saline): 202 % of control
T/C (endpoint: median survival time, dose: 108.0 mg/kg/injection, schedule: Q01DX001 (iv), vehicle: saline): 171 % of control
T/C (endpoint: median survival time, dose: 125.0 mg/kg/injection, schedule: Q01DX001 (ip), vehicle: water): 183 % of control
T/C (endpoint: median survival time, dose: 150.0 mg/kg/injection, schedule: Q01DX001 (ip), vehicle: saline): 169 % of control
T/C (endpoint: median survival time, dose: 250.0 mg/kg/injection, schedule: Q01DX001 (ip), vehicle: water): 173 % of control
T/C (endpoint: median survival time, dose: 330.0 mg/kg/injection, schedule: Q07DX003 (ip), vehicle: saline): 210 % of control
T/C (endpoint: median survival time, dose: 450.0 mg/kg/injection, schedule: Q01DX001 (ip), vehicle: saline): 154 % of control

CCCCCCCCCCCCCCCC(=O)N(CCC#N)C(C)(C)CCC(C)(C)N(CCC#N)C(=O)CCCCCCCCCCCCCCC
T/C (endpoint: mean survival time, dose: 25.0 mg/kg/injection, schedule: Q01DX009 (ip), vehicle: Klucel (hydroxypropylcellulose) (HPC)): 95 % of control
T/C (endpoint: mean survival time, dose: 50.0 mg/kg/injection, schedule: Q01DX009 (ip), vehicle: Klucel (hydroxypropylcellulose) (HPC)): 95 % of control
T/C (endpoint: mean survival time, dose: 100.0 mg/kg/injection, schedule: Q01DX009 (ip), vehicle: Klucel (hydroxypropylcellulose) (HPC)): 88 % of control
T/C (endpoint: mean survival time, dose: 200.0 mg/kg/injection, schedule: Q01DX009 (ip), vehicle: Klucel (hydroxypropylcellulose) (HPC)): 88 % of control

Cc1ccc(C(SCC(N)C(=O)O)(c2ccc(C)cc2)c2ccc(C)cc2)cc1 (stereo unspecified)
T/C (endpoint: mean survival time, dose: 100.0 mg/kg/injection, schedule: Q01DX009 (ip), vehicle: saline): 175 % of control
T/C (endpoint: mean survival time, dose: 200.0 mg/kg/injection, schedule: Q01DX009 (ip), vehicle: saline): 210 % of control
T/C (endpoint: mean survival time, dose: 400.0 mg/kg/injection, schedule: Q01DX009 (ip), vehicle: saline): 200 % of control
